Measurements as given in patent publication US20090246281A1, “Soft steroid compositions for use in dry powder inhalers” (Norton Healthcare Ltd., priority 2003, published 2009).

Assay: Stability of EDA dry mix versus EDA solutions in solvents
Type: physicochemical
From the text: In comparison, solutions prepared by dissolving 2 wt % EDA in a) pure methanol, b) pure ethanol, c) methanol+10 wt % water (pH 4.5) and d) ethanol+10% water (pH 4.5), were stable for 2 days, 2 days, 4 days and 4 days, respectively.

For CCOC(=O)[C@@]1(OC(=O)C(Cl)Cl)CCC2C3CCC4=CC(=O)C=CC4(C)C3C(O)CC21C (stereo partly drawn) [EDA, ethyl 17α-dichloroacetoxy-11β-hydroxyandrosta-1,4-dien-3-one-17β-carboxylate], the “Time stable in solution” value (2 wt % EDA in ethanol+10% water (pH 4.5)) was 4 days, the “Time stable in solution” value (2 wt % EDA in methanol+10 wt % water (pH 4.5)) was 4 days and the “Time stable in solution” value (2 wt % EDA in pure ethanol) was 2 days. For the same compound, the “Time stable in solution” value (2 wt % EDA in pure methanol) was 2 days.
